# Values quoted from earlier work, collected in US11419835B2, “Method of treatment and prevention of bacterial vaginosis” (EVOFEM, INC., priority 2016, dated 2022).
# System: HIV
# Details: compared with D or racemic lactic acid
compound,measurement,value
"C[C@H](O)C(=O)O [L-lactic acid, L-(+)-lactic acid]",potency in inactivating HIV,more potent in inactivating HIV than D or racemic lactic acid
